Target: EGFR (human), P00533 [WT]
Sequence (P00533 whole entry, looked up): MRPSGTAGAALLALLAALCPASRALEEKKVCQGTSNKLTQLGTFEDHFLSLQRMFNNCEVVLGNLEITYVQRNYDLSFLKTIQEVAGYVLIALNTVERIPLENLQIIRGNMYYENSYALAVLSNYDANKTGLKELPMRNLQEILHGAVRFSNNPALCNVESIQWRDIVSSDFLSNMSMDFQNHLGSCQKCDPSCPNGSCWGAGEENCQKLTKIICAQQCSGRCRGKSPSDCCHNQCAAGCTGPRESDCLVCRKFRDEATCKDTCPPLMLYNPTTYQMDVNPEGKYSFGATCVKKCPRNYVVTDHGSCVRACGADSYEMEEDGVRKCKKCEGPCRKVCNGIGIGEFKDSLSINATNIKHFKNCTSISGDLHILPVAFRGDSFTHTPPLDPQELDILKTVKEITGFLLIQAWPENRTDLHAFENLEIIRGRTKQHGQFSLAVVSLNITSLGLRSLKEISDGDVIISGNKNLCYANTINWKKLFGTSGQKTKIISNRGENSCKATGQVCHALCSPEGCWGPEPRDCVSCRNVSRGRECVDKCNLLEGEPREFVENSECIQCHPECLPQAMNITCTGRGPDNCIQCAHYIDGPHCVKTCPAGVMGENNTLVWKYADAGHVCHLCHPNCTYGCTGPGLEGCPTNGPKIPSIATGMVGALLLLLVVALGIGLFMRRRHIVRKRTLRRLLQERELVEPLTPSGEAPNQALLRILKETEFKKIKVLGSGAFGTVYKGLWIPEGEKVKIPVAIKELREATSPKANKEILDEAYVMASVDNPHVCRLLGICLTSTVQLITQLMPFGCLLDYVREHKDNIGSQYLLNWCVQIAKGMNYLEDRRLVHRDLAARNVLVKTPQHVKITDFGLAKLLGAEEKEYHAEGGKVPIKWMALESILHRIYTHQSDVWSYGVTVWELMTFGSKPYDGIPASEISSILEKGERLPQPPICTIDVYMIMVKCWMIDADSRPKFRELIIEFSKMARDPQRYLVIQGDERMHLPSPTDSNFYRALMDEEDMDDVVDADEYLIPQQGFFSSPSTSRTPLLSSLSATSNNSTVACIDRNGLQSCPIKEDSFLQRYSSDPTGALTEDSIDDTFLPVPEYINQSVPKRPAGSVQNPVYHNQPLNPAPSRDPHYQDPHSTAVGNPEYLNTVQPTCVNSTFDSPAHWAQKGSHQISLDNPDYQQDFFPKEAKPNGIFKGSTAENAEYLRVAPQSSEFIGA

IC50, ≤ 10 nM:
C=CC(=O)N(C)c1cccc(Nc2cc(Nc3ccc(Oc4ccccc4)cc3)ncn2)n1
C/C=C/C(=O)Nc1cccc(Nc2cc(Nc3cccc(Br)c3)ncn2)c1
C=CC(=O)Nc1cccc(Nc2cc(N3CCc4ccccc43)ncn2)c1
C=CC(=O)Nc1cccc(Nc2cc(Nc3ccc(Br)cc3F)ncn2)c1
C=CC(=O)Nc1cccc(Nc2cc(Nc3cccc(Oc4ccccc4)c3)ncn2)c1
C=CC(=O)Nc1cccc(Nc2cc(N(C)c3ccccc3)ncn2)c1
CN(C)C/C=C/C(=O)Nc1cccc(Nc2cc(Nc3ccc(F)c(Cl)c3)ncn2)c1
CC(Cl)C(=O)Nc1cccc(Nc2cc(Nc3ccc(F)c(Cl)c3)ncn2)c1 (stereo not drawn)
CN(C)C/C=C/C(=O)Nc1cccc(Nc2cc(Nc3ccc(OCc4cccc(F)c4)c(Cl)c3)ncn2)c1
C=CC(=O)Nc1cccc(Nc2cc(Nc3ccccc3)ncn2)n1
CN(C)C/C=C/C(=O)Nc1cccc(Nc2cc(Oc3ccc(Oc4ccccc4)cc3)ncn2)n1
O=C(C=CCN1CCCC1)Nc1cccc(Nc2cc(Nc3ccc(F)c(Cl)c3)ncn2)c1
C=CC(=O)Nc1cccc(Nc2cc(Nc3ccc(Oc4ccccc4)cc3)ncn2)n1
C=CC(=O)Nc1cccc(Nc2cc(Oc3cccc(C(F)(F)F)c3)ncn2)c1
C=CC(=O)Nc1cccc(Nc2cc(Nc3cccc(Br)c3)ncn2)c1
CC#CC(=O)c1cccc(Nc2cc(Nc3ccc(Oc4ccccc4)cc3)ncn2)c1
CN(C)C/C=C/C(=O)N(C)c1cccc(Nc2cc(Nc3ccc(Oc4ccccc4)cc3)ncn2)n1
C=CC(=O)Nc1ccc(Nc2cc(Nc3cccc(Br)c3)ncn2)cc1
CN(C)C/C=C/C(=O)Nc1cccc(Nc2cc(Nc3ccccc3)ncn2)n1
N#CC1(C(=O)Nc2cccc(Nc3cc(Nc4ccc(F)c(Cl)c4)ncn3)c2)CC1
C=CC(=O)Nc1cccc(Nc2cc(Nc3ccc(Oc4ccccc4)cc3)ncn2)c1
C=CC(=O)N1CCCC(Nc2cc(Nc3ccc(F)c(Cl)c3)ncn2)C1 (stereo not drawn)
C=CS(=O)(=O)Nc1cccc(Nc2cc(Nc3ccc(OCc4cccc(F)c4)c(Cl)c3)ncn2)c1
C=CC(=O)N1CCC(Nc2cc(Nc3ccc(F)c(Cl)c3)ncn2)C1 (stereo not drawn)
C=CC(=O)Nc1cccc(Nc2cc(Nc3ccc(F)c(Cl)c3)ncn2)c1
Cc1cccc(Oc2cc(Nc3cccc(NC(=O)C=CCN(C)C)n3)ncn2)c1
C=CC(=O)Nc1cccc(Nc2cc(Nc3ccccc3)ncn2)c1
O=C(CCl)Nc1cccc(Nc2cc(Nc3ccc(F)c(Cl)c3)ncn2)c1
C=CC(=O)Nc1cccc(Nc2cc(Nc3ccc(OCc4ccccn4)c(Cl)c3)ncn2)c1
C=CC(=O)Nc1cccc(Nc2cc(Oc3cccc(OC)c3)ncn2)n1
C=CS(=O)(=O)Nc1cccc(Nc2cc(Nc3cccc(C)c3)ncn2)c1
C=CS(=O)(=O)Nc1cccc(Nc2cc(Nc3ccc(F)c(Cl)c3)ncn2)c1
C=CC(=O)Nc1cccc(Nc2cc(Oc3cccc(C)c3)ncn2)n1
CN(C)C/C=C/C(=O)Nc1cccc(Nc2cc(Nc3ccc(F)c(Cl)c3)ncn2)n1
C=CS(=O)(=O)Nc1cccc(Nc2cc(Oc3cccc(C(F)(F)F)c3)ncn2)c1
C=CC(=O)Nc1cccc(Nc2cc(Oc3ccc(Oc4ccccc4)cc3)ncn2)n1
Cc1ccc(NC(=O)/C=C/CN(C)C)cc1Nc1cc(Nc2ccc(F)c(Cl)c2)ncn1
C=CC(=O)Nc1cccc(Nc2cc(Nc3cccc(C)c3)ncn2)c1
O=C(Nc1cccc(Nc2cc(Nc3ccc(F)c(Cl)c3)ncn2)c1)C1(C(F)(F)F)CC1
COc1ccc(NC(=O)/C=C/CN(C)C)cc1Nc1cc(Nc2ccc(F)c(Cl)c2)ncn1
C#Cc1cccc(Nc2cc(Nc3cccc(NC(=O)C=C)c3)ncn2)c1
CC=CC(=O)c1cccc(Nc2cc(Nc3ccc(Oc4ccccc4)cc3)ncn2)c1
CN(C)C/C=C/C(=O)Nc1cccc(Nc2cc(Nc3ccc(OCc4ccccn4)c(Cl)c3)ncn2)c1
Cc1cccc(Nc2cc(Nc3cccc(NC(=O)/C=C/CN(C)C)c3)ncn2)c1
CN(C)C/C=C/C(=O)Nc1cccc(Nc2cc(Oc3ccc(F)c(Cl)c3)ncn2)c1
C=CC(=O)Nc1cccc(Nc2cc(Oc3ccc(OC)cc3)ncn2)n1

Target: EGFR (Human), P00533 [T790M/L858R]
Sequence (P00533 whole entry T790M/L858R, looked up): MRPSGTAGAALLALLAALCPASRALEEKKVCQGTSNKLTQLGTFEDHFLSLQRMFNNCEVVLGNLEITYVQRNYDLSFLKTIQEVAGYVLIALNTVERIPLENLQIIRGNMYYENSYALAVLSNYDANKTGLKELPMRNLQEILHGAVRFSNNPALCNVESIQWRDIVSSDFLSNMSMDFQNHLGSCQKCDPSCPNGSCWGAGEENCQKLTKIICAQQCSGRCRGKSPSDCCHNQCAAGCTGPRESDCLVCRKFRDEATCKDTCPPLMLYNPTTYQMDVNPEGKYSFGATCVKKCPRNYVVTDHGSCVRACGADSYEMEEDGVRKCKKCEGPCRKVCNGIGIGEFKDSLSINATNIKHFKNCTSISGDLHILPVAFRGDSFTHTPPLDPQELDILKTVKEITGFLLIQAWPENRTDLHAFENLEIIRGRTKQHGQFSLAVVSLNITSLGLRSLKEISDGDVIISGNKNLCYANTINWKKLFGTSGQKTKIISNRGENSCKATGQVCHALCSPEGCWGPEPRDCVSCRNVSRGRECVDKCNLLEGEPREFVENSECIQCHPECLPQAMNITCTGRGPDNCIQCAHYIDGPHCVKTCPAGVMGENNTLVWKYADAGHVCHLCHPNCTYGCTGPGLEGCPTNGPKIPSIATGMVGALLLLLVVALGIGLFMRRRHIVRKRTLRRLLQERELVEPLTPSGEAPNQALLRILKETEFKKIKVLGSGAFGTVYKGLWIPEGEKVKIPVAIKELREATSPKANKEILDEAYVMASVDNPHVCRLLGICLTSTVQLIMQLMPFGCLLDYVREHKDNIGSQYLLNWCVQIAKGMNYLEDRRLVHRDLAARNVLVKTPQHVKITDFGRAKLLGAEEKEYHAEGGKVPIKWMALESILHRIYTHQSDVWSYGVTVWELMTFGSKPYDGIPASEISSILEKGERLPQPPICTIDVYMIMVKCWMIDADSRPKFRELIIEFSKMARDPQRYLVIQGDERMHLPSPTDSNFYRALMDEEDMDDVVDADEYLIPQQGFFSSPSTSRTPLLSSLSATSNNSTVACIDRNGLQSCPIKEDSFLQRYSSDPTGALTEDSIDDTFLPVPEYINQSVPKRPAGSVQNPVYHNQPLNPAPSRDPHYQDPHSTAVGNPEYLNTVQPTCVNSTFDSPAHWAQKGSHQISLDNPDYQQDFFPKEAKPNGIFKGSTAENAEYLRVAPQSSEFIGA

IC50, ≤ 10 nM:
O=C(C=CCN1CCCC1)Nc1cccc(Nc2cc(Nc3ccc(F)c(Cl)c3)ncn2)c1
CN(C)C/C=C/C(=O)Nc1cccc(Nc2cc(Nc3ccc(F)c(Cl)c3)ncn2)n1
